2 compounds from patent US20250269039A1, “THERAPEUTIC-OLIGONUCLEOTIDES ACTIVATED BY NUCLEASES” (priority 2020, published 2025) can be followed below.

In brackets after ≈: the same amount, converted by molar mass. Read-outs that look alike come from different tables or passages of the source.

Test [1] has as its system S. aureus ATCC1766. Put plainly: Mouse thigh muscle infection model: gross pictures, histopathology, bacteria counts. The note with it: for histopathological analysis of infected leg / visible bacterial infection of infected leg (gross photographs): mice, i.v.; for histopathological analysis of infected leg: 20 mg/kg/24 hour Floxuridine equivalent, FIG. 7d-g; for visible bacterial infection of infected leg (gross photographs): four doses equivalent to 5 mg/kg Floxuridine over 24 hours, FIG. 7a-c. The class given is in vivo, mice. Here is the method:
In vivo assessment of the therapeutic efficacy of TOUCANs in a mouse infection model. All animal experiments described in this study were conducted at the Linköping University Center for Biomedical Resources and were approved by the Swedish Ethical Board “Jordbruksverket” under the animal protocol 1253. All experiments were conducted according to the principles expressed in the Declaration of Helsinki. Six-weeks old female […] mice were divided into three different groups: Placebo (saline solution), Floxuridine alone and TOUCAN 7mFx, with 8 mice per group. First, to induce the infection, S. aureus ATCC1766 strain was cultured on tryptone soy agar with 5% defibrinated sheep blood, and single colonies were transferred to 25 mL tryptone soy broth and incubated at 37° C. for 12 hours with 200 rpm shaking. Next, bacteria solution was diluted 1/100 using PBS+/+ (˜10^7 CFU/mL) and 50 μL (˜5×10^5 CFU) were injected into the right thigh muscles of all mice under sterile conditions and 2% isoflurane anesthesia. This method was optimized based on our previous animal infection model.^16 In this model, the left uninfected leg was used as control for each animal. This model induces reproducible infections after 24 hours. Next, the therapeutic regime was adapted from a previous study that validated the efficacy of several antibiotics against S. aureus.^28 We have treated the mice for 24 hours with four doses of TOUCAN 7mFx equivalent to 5 mg/kg of Floxuridine in 100 μL of PBS−/−, administered intravenously by tail vein injections. The first dose was administered after 2 hours post-inoculation, followed by 3 additional injections at the same concentration every 6 hours. In total, each animal was given TOUCAN 7mFx equivalent to 20 mg/kg/24 hour of Floxuridine. In this study, two additional groups, Placebo and Floxuridine alone, were also tested in infected animals. In the Placebo group, mice were injected with a saline solution (PBS), and in the Floxuridine group, mice were injected with 20 mg/kg/24 hours of Floxuridine under the same conditions indicated for TOUCAN 7mFx. After 24 hours, blood samples were collected, and mice were euthanized. For a thorough blood analysis, we have included an additional group of uninfected/untreated mice as control. Next, gross pictures of both legs were taken and samples for histopathological and bacteriological analyses were collected. At least four mice per group per analysis were used in this study.
Gross pictures. Once the mice were euthanized, the skin from legs and dorsal part was removed very carefully to allow observation of the bacterial infection and the associated tissue damage. Next, photographs were taken to document the localized infection for each animal.
Histopathological analysis. To evaluate the histopathological features of infected and uninfected tissues, the thigh muscles of the animals were dissected. Subsequently, tissues were transferred to 4% buffered formaldehyde solution and stored at 4° C. for 24 hours. Then, tissues were removed from the formaldehyde solution and transferred into 50% ethanol for 15 minutes followed by 70% ethanol until processed. Next, tissues were fixed, dehydrated and wax infiltrated using a Leica TP1020 system for 7 hours. Subsequently, tissues were embedded in paraffin using a Leica EG 1150 system. The sections slides were prepared using an Automatic Rotary Microtome HM355S system and finally, samples were stained with Hematoxylin-Eosin (H&E) using an Automatic Leica ST4020 Linear Stainer. The slides were imaged using an Olympus BX51 light microscope.
Bacteria counts. To measure viable bacteria in mice, infected and uninfected tissues from both legs were collected, transferred to individual 1.5 mL vials and weighted on a microbalance. Each sample was homogenized in 1 mL of PBS using Fisherbrand Bead Mill 4 automatic homogenizer (Fisher Scientific). The homogenized solutions were serially diluted to 1:100, 1:1.000, 1:10.000 and 1:100.000. […]

Test [2] relates to S. aureus ATCC 43300 (MRSA). Put plainly: Broth microdilution MIC and growth inhibition. It counts as cell-based, Staphylococcus aureus. The conditions noted are these: for MIC: 18 h, TOUCAN as NA equivalent. The text has this:
(§1) Bacteria strains. S. aureus NCTC 12493 (MRSA), S. aureus ATCC 29213 (MSSA), S. aureus ATCC 43300 (MRSA), S. aureus ATCC 1707 (MRSA), S. aureus ATCC 1717 (MRSA), S. aureus ATCC 1747 (MRSA), S. aureus ATCC 1761 (MRSA), S. aureus ATCC 1766 (MRSA), S. aureus ATCC 1768 (MRSA), S. epidermidis ATCC 35984, E. coli ATCC 25922, K. pneumoniae ATCC 13883, P. mirabilis ATCC 25933, S. enterica ATCC 14028 and P. aeruginosa ATCC 10145 strains were used in this study. Bacteria were initially inoculated onto tryptone soy agar with 5% defibrinated sheep blood (Thermo Fisher Scientific, Inc., Waltham, MA, USA) and incubated at 37° C. for 24 hours. Then, single colonies of each strain were transferred to tryptone soy broth (Thermo Fisher Scientific) for the nuclease activity assay or antimicrobial susceptibility testing, respectively.
(§2) Antimicrobial susceptibility testing. Minimal inhibitory concentrations (MIC) of all nucleoside analogues and TOUCANs against each bacteria strain were determined using broth microdilution method. A single colony obtained from overnight culture on tryptone soy agar with 5% defibrinated sheep blood was inoculated in cation-adjusted Mueller Hinton Broth and adjusted to 10^6 CFU/mL. TOUCANs were prepared in PBS+/+ (treatment) and serial dilutions were made in 96-well polystyrene round bottom microwell plates with 50 μL final volume for each concentration. PBS+/+ was used as untreated control. Next, 50 μL bacteria solutions were added to each well to a final bacteria concentration of 5×10^5 CFU/mL. Plates were incubated at 37° C. in Cytation 1 Cell Imaging Multimode Reader. Growth curves were obtained by measuring optical densities at 600 nm every 10 minutes for 18 hours using Cytation 1 Cell Imaging Multimode Reader. In addition, visual inspection of the plates was carried out after 18 hours and photographs were taken. MICs were defined as the lowest drug concentration in the microwell at which bacterial growth was not visible at the end of the incubation period. Besides MIC determination, specificity of TOUCAN 7mGe was also shown with subcultures on chromogenic media. For this purpose, 5 μL of different concentrations of each strain were inoculated onto CHROM agar Orientation Media (Becton Dickinson) and the bacterial growth of each bacteria strain tested was observed by naked eye after incubation at 37° C. for 24 hours. Finally, photographs of the chromogenic media were taken.
A general note: Broth dilution looks for growth in wells or tubes with falling amounts of substance.

The test system of test [3] is S. aureus NCTC 12493 (MRSA). Put plainly: Broth microdilution MIC and growth inhibition. The class given is cell-based, Staphylococcus aureus.
Description: as §1, §2

The test system of test [4] is S. aureus ATCC 1761 (MRSA). Put plainly: Broth microdilution MIC and growth inhibition. The note with it: for MIC: 18 h, TOUCAN as NA equivalent. The class given is cell-based, Staphylococcus aureus.
Description: as §1, §2

The subject of test [5] is S. aureus ATCC 1747 (MRSA). Put plainly: Broth microdilution MIC and growth inhibition. The conditions noted are these: for MIC: 18 h, TOUCAN as NA equivalent. The class given is cell-based, Staphylococcus aureus.
Description: as §1, §2

Test [6] has as its system S. aureus ATCC 1717 (MRSA). Put plainly: Broth microdilution MIC and growth inhibition. It counts as cell-based, Staphylococcus aureus. The conditions noted are these: for MIC: 18 h, TOUCAN as NA equivalent.
Description: as §1, §2

Where [7] appears, read: infected leg, CFU/g, after 24 hours, FIG. 7h.
The mark [8] stands for this setting: Staphylococcus aureus, read-out: MIC.

Usually MIC stands for the smallest concentration in the dilution series that meets the test's criterion for growth inhibition.

As for mU-mU-mU-mU-T-T-Fx [TOUCAN 7mFx], the “times less bacteria recovered compared to Floxuridine group” value in test [1] (setting [7]) was determined as 2949 times. Besides, in test [1] (setting [7]), the “times less bacteria recovered compared to Placebo group” value came out at 642 times. Further, the “histopathological analysis of infected leg” value in test [1] is listed as “minimal inflammation with residual neutrophil infiltration”. For the same compound, in test [1], the “visible bacterial infection of infected leg (gross photographs)” value is on record as “do not show any visible signs of bacterial infection”. Also, the “TOUCAN MIC/NA MIC TOUCAN Efficacy Ratio (TER)” value in test [2] was 1000; in test [3] (S. aureus NCTC 12493 (MRSA)) it was 125; in test [4], 500; in test [5], 500; in test [6] it was 125. The MIC in test [2] came to 40 µg/mL; in test [3] (S. aureus NCTC 12493 (MRSA), 18 h, TOUCAN as NA equivalent), 40 µg/mL; in test [4], 2.5 µg/mL; in test [5] it was 2.5 µg/mL; in test [6], 10 µg/mL. Also, the “TOUCAN % Growth inhibition” value is 92.8 ± 0.7% in test [2] (mean ± SD, n = 3); 91.5 ± 0.00% in test [3] (S. aureus NCTC 12493 (MRSA), mean ± SD, n = 3); 93.9 ± 0.05% in test [4] (mean ± SD, n = 3); 92.8 ± 0.7% in test [5] (mean ± SD, n = 3); 94.5 ± 0.04% in test [6] (mean ± SD, n = 3).
In the case of `O=c1[nH]c(=O)n([C@H]2C[C@H](O)[C@@H](CO)O2)cc1F` [Floxuridine, reference compound], the “bacteria count of infected leg” value in test [1] (infected leg, after 24 hours, FIG. 7h) is “high bacteria count”. Moreover, the “histopathological analysis of infected leg” value in test [1] was “clear evidence of bacterial infection, inflammation, and neutrophil infiltration”. The “visible bacterial infection of infected leg (gross photographs)” value in test [1] is “slightly stronger infection”. The minimal inhibitory concentration (MIC) in test [2] (setting [8]) stood at 0.04 µg/mL; in test [3] (Staphylococcus aureus, S. aureus NCTC 12493 (MRSA), 18 h, TOUCAN as NA equivalent, read-out: MIC), 0.32 µg/mL; in test [3] (Staphylococcus aureus, Table 1, S. aureus NCTC 12493, read-out: MIC), 0.32 µg/mL (≈ 1.3 µM); in test [4] (setting [8]), 0.005 µg/mL; in test [5] (setting [8]) it was 0.005 µg/mL; in test [6] (setting [8]), 0.08 µg/mL. Moreover, the “% Growth inhibition” value in test [3] (Table 1, S. aureus NCTC 12493, mean ± SD, n = 3) stood at 87.9 ± 0.4%.
